Assay results reported in patent US20240189294A1, “METHOD FOR REGULATING SEBACEOUS GLAND” (BUDDHIST TZU CHI MEDICAL FOUNDATION, priority 2021, published 2024).
Entries after “also recorded” stand apart in the source; their conditions may differ.

Columns and labels:
[1] = tested on: hair follicles; assay: Topical application of CK1 inhibitors on shaved back skin of wild-type mice: hair growth phenotype and H&E staining (hair cycle phase); type: in vivo, C57BL/6J mice; conditions: topical 0.04 mg every other day, total 0.12 mg per 1 cm^2, mice 8 weeks old; for hair growth on the back skin (phenotype): three times, N=3, FIG. 5B; for hair cycle phase, H&E staining of back skin: FIG. 5C
Description: K14-Cr-ERT2-CK1α^fl/fl mice, Mc1r^549del mice and Mc1r^549del mice with CK1α ablation in keratinocytes (CK1α^−/−Mc1r^549del) were collaboratively generated in National Laboratory Animal Center (NLAC) in Tainan, Taiwan, and wild type C57BL/6J mice were also purchased from NLAC. Experiments and animal caring were performed in the Laboratory Animal Center, Tzu Chi University, Hualien, Taiwan, with the approval of Animal Care Committee in accordance with legal and ethical standards. Both male and female mice were used. The hair cycle in wild C57BL/6J mice is related to the age; weeks 4 to 6 are an anagen phase, weeks 6 to 7 are a catagen phase, and weeks 7 to 12 are a telogen phase.
A51 is a gift from Dr. Yinon Ben-Nerian's lab (which was published in Cell, Volume 175, Issue 1, 20 Sep. 2018, pages 171-185). For topical application onto mouse skin, 1 mg of CKI was dissolved in 6 μL dimethyl sulfoxide (DMSO) and mixed with 54 μL of vehicle which contained 60% of white wax and 40% of paraffin oil. The final working concentration is 0.1 mg/cm^2.
D4476 was purchased from Sigma Aldrich (#D1944). For topical application onto mouse skin, 4 mg of CKI was dissolved in 1 mL DMSO as the stock. 10 μL stock was mixed with 40 μL of vehicle which contained 60% of white wax and 40% of paraffin oil. The final working concentration is 0.04 mg/cm^2.
IC261 was purchased from Sigma Aldrich (#40090). For topical application onto mouse skin, 4 mg of CKI was dissolved in 1 mL DMSO as the stock. 10 μL stock was mixed with 40 μL of vehicle which contained 60% of white wax and 40% of paraffin oil. The final working concentration is 0.04 mg/cm^2.
(§1) Mice at 8 weeks old were shaved to remove hair on back skin and cleaned with 75% ethanol. Topical CKIs were applied on the back skin 3 times in one week, and the tissue was harvested on day 7, day 14 and some on day 28 after application of CKIs. The tissue was analyzed by the methods described below.
(§2) Skin samples were harvested at indicated timings for tissue analysis. Paraffin-embedded specimens were cut into 5-μm sections. After deparaffinization (with tissue slides being soaked in xylene three times, each time for 5 min) and rehydration (with slides being incubated in the following graded series of ethanol: 100%, 100%, 95%, 90% and 70%, 5 min each), the slides were rinsed with distilled water for 5 min.
For histopathology by H&E staining, skin tissues were fixed overnight in 10% neutral buffered formalin at 4° C. and then transferred to 70% ethanol before being processed and embedded in paraffin. Paraffin sections were then stained with H&E.

[2] = tested on: hair follicle pigmentation; assay: Fontana-Masson staining of hair follicle pigmentation after topical CK1 inhibitor; type: in vivo, C57BL/6J mice; conditions: topical 0.04 mg every other day, total 0.12 mg per 1 cm^2, mice 8 weeks old (telogen); FIG. 5E
Description: as §1, §2
Fontana-Masson staining and H&E staining were performed by using the kit from ScyTek Laboratories, Inc. according to the manufacturer's instructions.
Briefly, for Fontana-Masson staining, a freshly mixed ammoniacal silver solution was placed in a 58° C. to 60° C. water bath and allowed to equilibrate. The slides were incubated in a warmed ammoniacal silver solution for 30 to 60 min or until the tissue sections became yellow/brown in color, and were then rinsed with distilled water for 3 to 5 seconds (s). The slides were incubated in a gold chloride solution (0.2%) for 30 s and were then rinsed with distilled water for 3 to 5 s. […]

[3] = tested on: β-catenin; assay: Immunohistochemical staining of β-catenin in back skin after topical CK1 inhibitor; type: in vivo, C57BL/6J mice; conditions: topical 0.04 mg every other day, total 0.12 mg per 1 cm^2, mice 8 weeks old; FIG. 5D
Description: as §1, §2
Paraffin sections were incubated in a humidity chamber for 15 min at 60° C. Sections were deparaffinized in two changes of xylene for 5 min each and hydrated in two changes of 100% ethanol for 5 min each, then in 95% and 80% ethanol for 5 min each, and finally rinsed in distilled water. Antigen retrieval was enhanced by microwaving the slides in a citrate buffer (DAKO; pH 6.0) for 20 min. Endogenous peroxidase activity was quenched with 3% hydrogen peroxide in methanol. After blocking, sections were incubated overnight at 4° C. with β-catenin antibody (1/100; BD Bioscience). Secondary antibodies used were horseradish peroxidase (HRP)-polymer anti-mouse antibodies (Nichirei). […]

[4] = tested on: c-Myc; assay: Western blot of c-Myc in SZ95 cells; type: cell-based, human; conditions: IC261 at different concentrations vs DMSO, FIG. 8C
Description: (§3) For experiments involving tissues, the tissues were homogenized and lysed in 1× tissue protein extraction reagent (Thermo Fisher) containing protease inhibitor (Millipore) and kept on ice; for experiments involving cells, cell pellet was collected and lysed in 1×radioimmunoprecipitation assay (RIPA) lysis buffer containing protease inhibitor (Millipore) and kept on ice. The total protein concentration was determined using Protein Assay Dye Reagent Concentrate (Bio-Rad) following manufacturer's instruction with a microplate reader. Sample was diluted in SDS-PAGE Sample Buffer (Bio-Rad) and heated at 95° C. for 5 minutes. The protein sample was then resolved on SDS-PAGE gels (TGX FastCast acrylamide solutions, Bio-Rad) and transferred onto poly(vinylidene fluoride) (PVDF) membranes (Millipore). 5% BSA was used, and then the membranes were incubated with primary antibodies overnight at 4° C. The membranes were then washed by Tris-buffered saline with Tween 20 (TBST) and incubated with secondary antibodies for 1 hour at room temperature. The signal was detected using iBright FL1000 Imaging System from Thermo Fisher Scientific.
(§4) The antibodies used in immunohistochemistry (IHC) and Western blotting (WB) in this disclosure were listed in Table 1 below, where manufacturers, catalogue number and the dilution ratio used were provided. […]

[5] = tested on: SZ95 cells (human sebocyte cell line); assay: WST-1 assay in SZ95 cells; type: cell-based; conditions: 1.5×10^4 cells/well, treated for 24 hr, FIG. 8B
Description: SZ95 cells (human sebocyte cell line) were maintained in Sebomed basal Medium (Sigma) supplemented with 10% FBS and 5 ng/mL epidermal growth factor under standard cell culture conditions of 37° C. and 5% CO2.
WST-1 assay. Seeding cells with density 1.5×10^4 cells/well in 96-well plate, incubate overnight. Remove medium and add 100 μL fresh medium contain various amount of IC261 (1, 50, 100, 200, 500, 1000 nM) in each well, incubate for 24 hr. Add 10 μL/well WST-1, incubate for 4 hr. Measure the absorbance of OD 450 nm and OD 655 nm by ELISA reader.

[6] = tested on: LC3B; assay: Western blot of LC3B (autophagy marker) in SZ95 cells; type: cell-based, human; conditions: FIG. 8D
Description: as §3, §4

[7] = tested on: PPARγ; assay: Western blot of PPARγ in SZ95 cells; type: cell-based, human; conditions: IC261 at different concentrations vs DMSO, FIG. 8C
Description: as §3, §4

With `NC(=O)c1ccc(-c2nc(-c3ccc4c(c3)OCCO4)c(-c3ccccn3)[nH]2)cc1` [D4476] the “hair growth on the back skin (phenotype)” value [1] was “significantly induced hair growth”, the “hair cycle phase, H&E staining of back skin” value [1] was “induces an anagen phase of the hair cycle” and the “hair follicle pigmentation, Fontana-Masson staining” value [2] was “induce hair follicle growth and pigmented hair formation; also recorded: Heavily pigmented hair follicles and shafts”. The “expression of β-catenin, immunohistochemical staining” value [3] was “increased the expression of β-catenin in the matrix of hair follicle”.

For `COc1cc(OC)c(C=C2C(O)=Nc3ccccc32)c(OC)c1` [IC261], the “hair growth on the back skin (phenotype)” value [1] was “significantly induced hair growth”, the “hair cycle phase, H&E staining of back skin” value [1] was “induces an anagen phase of the hair cycle” and the “hair follicle pigmentation, Fontana-Masson staining” value [2] was “induce hair follicle growth and pigmented hair formation; also recorded: Heavily pigmented hair follicles and shafts”. For the same molecule, the “c-Myc expression (biomarker for undifferentiated sebocytes)” value [4] was “increased”, the IC50 [5] was about 0.476 µM and the “LC3B expression (marker for autophagy)” value [6] was “increase with a dose dependent manner”. For the same molecule, the “expression of β-catenin, immunohistochemical staining” value [3] was “increased the expression of β-catenin in the matrix of hair follicle” and the “PPARγ expression (biomarker for adipogenesis)” value [7] was “decreased”.
